US20100310688A1, “ACACIA EXTRACTS AND THEIR COMPOUNDS ON INHIBITION OF XANTHINE OXIDASE” (NATIONAL TAIWAN UNIVERSITY, priority 2009, published 2010)

Columns and labels:
[1] = molecular target: T1, xanthine oxidase (Homo sapiens, UniProt P47989); assay: Inhibition mode determination by Lineweaver-Burk plot; format: biochemical; details: 0.3, 0.4 or 0.6 mM substrate
Description: 798 μL of 0.1 unit xanthine oxidase in 200 mM sodium pyrophosphate/sodium chloride buffer (soudium pyrophosphate/HCl, pH 7.5) were mixed with 2 μL of DMSO dissolved melanoxetin, 7,8,3′,4′-tetrahydroxyflavon or okanin in 96-well plate at 37° C. for 5 minutes. 0.3, 0.4, or 0.6 mM substrate dissolved in double distilled water were added to start the reaction. OD 295 nm absorbance was detected every one minute by ELISA reader for total eight minutes at ambient temperature. Excel software was used for analyzing the result of enzyme.

[2] = molecular target: T1, xanthine oxidase; assay: Xanthine oxidase inhibition assay (uric acid formation, OD 295 nm); format: biochemical; details: for EC50: isolated major compounds, read-out: EC50 of inhibitory activity on xanthine oxidase; for xanthine oxidase inhibitory activity as fold of allopurinol: relative to allopurinol EC50
Description: Various parts of Acacia confusa were cold extracted by ethanol for 3 times, 7 days for each time. The extraction solution was vacuum filtered with Whatman #1 filter paper to remove impurities. The filtered extraction solution was concentrated by rotatory vacuum evaporator and lyophilized by a lyophilizer for xanthine oxidase inhibition assay. This assay was detecting xanthine derived uric acid, which was catalyzed by xanthine oxidase, at specific absorbance of UV 295 nm. Therefore, 2 μL of various concentrations of sample were mixed with 798 μL of sodium pyrophosphate buffer (pH 7.5) and 0.1 U of xanthine oxidase for 5 min at 37° C. 200 μL of 0.6 mM xanthine were added and vortex to mix thoroughly, and measured OD 295 nm absorbance by UV/visible light spectrophotometer. Finally, xanthine oxidase inhibitory rate of extracts (%) was calculated.

T1 sequence (P47989 whole entry, species assumed): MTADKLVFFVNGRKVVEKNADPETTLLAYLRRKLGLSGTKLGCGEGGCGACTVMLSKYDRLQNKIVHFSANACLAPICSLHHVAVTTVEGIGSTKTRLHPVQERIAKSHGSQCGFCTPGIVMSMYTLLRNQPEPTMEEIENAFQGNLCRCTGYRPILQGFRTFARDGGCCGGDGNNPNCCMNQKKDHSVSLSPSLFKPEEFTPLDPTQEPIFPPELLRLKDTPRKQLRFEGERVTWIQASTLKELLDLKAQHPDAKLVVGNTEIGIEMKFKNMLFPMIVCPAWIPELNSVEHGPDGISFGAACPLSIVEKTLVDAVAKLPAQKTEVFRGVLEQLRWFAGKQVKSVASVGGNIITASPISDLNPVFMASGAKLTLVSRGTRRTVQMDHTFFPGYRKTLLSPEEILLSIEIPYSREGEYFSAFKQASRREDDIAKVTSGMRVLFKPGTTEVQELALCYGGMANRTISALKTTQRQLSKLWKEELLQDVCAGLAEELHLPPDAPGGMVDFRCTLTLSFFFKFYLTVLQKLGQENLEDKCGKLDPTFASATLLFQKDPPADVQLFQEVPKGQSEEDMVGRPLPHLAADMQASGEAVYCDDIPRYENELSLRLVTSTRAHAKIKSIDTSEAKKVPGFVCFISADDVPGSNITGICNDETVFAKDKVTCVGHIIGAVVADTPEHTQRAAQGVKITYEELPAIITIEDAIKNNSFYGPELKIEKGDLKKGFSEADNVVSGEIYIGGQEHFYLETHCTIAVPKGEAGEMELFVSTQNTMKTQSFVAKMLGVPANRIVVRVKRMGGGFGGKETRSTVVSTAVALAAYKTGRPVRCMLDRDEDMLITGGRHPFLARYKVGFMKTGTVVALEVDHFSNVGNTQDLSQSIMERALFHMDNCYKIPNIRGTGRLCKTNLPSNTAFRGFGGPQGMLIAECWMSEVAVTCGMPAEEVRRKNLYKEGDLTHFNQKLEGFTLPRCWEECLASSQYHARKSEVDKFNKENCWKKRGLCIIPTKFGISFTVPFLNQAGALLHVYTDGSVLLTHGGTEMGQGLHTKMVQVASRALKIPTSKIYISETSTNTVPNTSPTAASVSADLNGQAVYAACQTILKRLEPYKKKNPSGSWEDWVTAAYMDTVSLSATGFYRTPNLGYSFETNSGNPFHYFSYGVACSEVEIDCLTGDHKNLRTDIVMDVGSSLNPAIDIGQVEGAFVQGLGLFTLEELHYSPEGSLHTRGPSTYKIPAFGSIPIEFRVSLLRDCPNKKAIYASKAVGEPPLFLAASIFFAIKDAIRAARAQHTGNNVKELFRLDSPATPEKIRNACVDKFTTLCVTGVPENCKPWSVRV

SMILES | inhibition mode on xanthine oxidase (Lineweaver-Burk plot) [1] | inhibition at 5 µg/mL ([2]; at concentration of 5 μg/mL) [%] | EC50 [2] [nM] | xanthine oxidase inhibitory activity as fold of allopurinol [2] [fold]
O=c1cc(-c2ccc(O)c(O)c2)oc2c(O)c(O)ccc12 [7,8,3′,4′-tetrahydroxyflavon] | competitive inhibition mode | – | – | –
Oc1ncnc2[nH]ncc12 [allopurinol, reference compound] | competitive inhibition mode | 78 | – | –
O=c1c(O)c(-c2ccc(O)c(O)c2)oc2c(O)c(O)ccc12 [melanoxetin, 3,7,8,3′,4′-pentahydroxyflavone] | competitive inhibition mode | – | 274 | 17
O=C(/C=C/c1ccc(O)c(O)c1)c1ccc(O)c(O)c1O [okanin, 3,4,2′,3′,4′-pentahydroxy trans-chalcone] | non-competitive inhibition mode | – | 74 | 63
